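These data come from cells grown in 96-well plates and exposed to compound for 48 hours at five concentrations. The concentration for full growth arrest is given as TGI.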
What was measured:
Assay in all cases: NCI-60 cell line screen, 48 h
[1] = tested on: MDA-MB-231 breast
[2] = tested on: HCT-15 colon
[3] = tested on: ACHN renal
[4] = tested on: SF-295 CNS
[5] = tested on: SR leukemia
[6] = tested on: RPMI-8226 leukemia
[7] = tested on: SF-539 CNS
[8] = tested on: A498 renal
[9] = tested on: LOX IMVI melanoma
[10] = tested on: UACC-257 melanoma
[11] = tested on: DU-145 prostate
[12] = tested on: HOP-62 NSCLC
[13] = tested on: COLO 205 colon
[14] = tested on: CCRF-CEM leukemia
[15] = tested on: NCI-H23 lung
[16] = tested on: SN12C renal
[17] = tested on: DLD-1 colon
[18] = tested on: OVCAR-3 ovarian
[19] = tested on: SF-268 CNS
[20] = tested on: MDA-MB-435
[21] = tested on: SNB-75 CNS
[22] = tested on: SK-MEL-2 melanoma
[23] = tested on: RXF 393 renal
[24] = tested on: MOLT-4 leukemia
[25] = tested on: M19-MEL melanoma
[26] = tested on: HOP-18 NSCLC
[27] = tested on: MDA-N
[28] = tested on: OVCAR-8 ovarian
[29] = tested on: NCI-H226 lung
[30] = tested on: BT-549 breast
[31] = tested on: OVCAR-5 ovarian
[32] = tested on: T-47D breast
[33] = tested on: NCI/ADR-RES ovarian
[34] = tested on: KM20L2 colon
[35] = tested on: SW-620 colon
[36] = tested on: DMS 273 small cell lung
[37] = tested on: OVCAR-4 ovarian
[38] = tested on: SK-OV-3 ovarian
[39] = tested on: UACC-62 melanoma
[40] = tested on: DMS 114 small cell lung
[41] = tested on: SK-MEL-5 melanoma
[42] = tested on: 786-0 renal
[43] = tested on: XF 498 CNS
[44] = tested on: K-562 leukemia
[45] = tested on: LXFL 529 NSCLC
[46] = tested on: M14 melanoma
[47] = tested on: CAKI-1 renal
[48] = tested on: NCI-H522 lung
[49] = tested on: A549 NSCLC
[50] = tested on: HT29 colon
[51] = tested on: U251 CNS
[52] = tested on: MALME-3M melanoma
[53] = tested on: HS 578T breast
[54] = tested on: UO-31 renal
[55] = tested on: MCF7 breast
[56] = tested on: HCC-2998 colon
[57] = tested on: EKVX NSCLC
[58] = tested on: HCT-116 colon
[59] = tested on: TK-10 renal
[60] = tested on: KM12 colon
[61] = tested on: HOP-92 NSCLC
[62] = tested on: SNB-19 CNS

Question: What does the source list for c1ccc2c(NCCCCCCNc3c4ccccc4nc4ccccc34)c3ccccc3nc2c1?
Answer: TGI [1]: 2050 nM; TGI [2]: 16700 nM; TGI [3]: 1720 nM; TGI [4]: 2180 nM; TGI [5]: 991 nM; TGI [6]: 250 nM; TGI [7]: 835 nM; TGI [8]: 2830 nM; TGI [9]: 1450 nM; TGI [10]: 8280 nM; TGI [11]: 2760 nM; TGI [12]: 2210 nM; TGI [13]: 1580 nM; TGI [14]: 1580 nM; TGI [15]: 2330 nM; TGI [16]: 4250 nM; TGI [17]: 3290 nM; TGI [18]: 2210 nM; TGI [19]: 2710 nM; TGI [20]: 2270 nM; TGI [21]: 2290 nM; TGI [22]: 2750 nM; TGI [23]: 1560 nM; TGI [24]: 212 nM; TGI [25]: 2480 nM; TGI [26]: 15200 nM; TGI [27]: 1620 nM; TGI [28]: 3180 nM; TGI [29]: 3540 nM; TGI [30]: 3320 nM; TGI [31]: 2710 nM; TGI [32]: 12500 nM; TGI [33]: 64200 nM; TGI [34]: 3050 nM; TGI [35]: 2180 nM; TGI [36]: 1350 nM; TGI [37]: 2180 nM; TGI [38]: 4310 nM; TGI [39]: 2080 nM; TGI [40]: 2000 nM; TGI [41]: 2860 nM; TGI [42]: 2080 nM; TGI [43]: 2720 nM; TGI [44]: > 100000 nM; TGI [45]: 2420 nM; TGI [46]: 2580 nM; TGI [47]: 7870 nM; TGI [48]: 1660 nM; TGI [49]: 2890 nM; TGI [50]: 1770 nM; TGI [51]: 2590 nM; TGI [52]: 2490 nM; TGI [53]: 3050 nM; TGI [54]: 23500 nM; TGI [55]: 2070 nM; TGI [56]: 1760 nM; TGI [57]: 5690 nM; TGI [58]: 693 nM; TGI [59]: 4900 nM; TGI [60]: 1810 nM; TGI [61]: 1970 nM; TGI [62]: 4920 nM

Reference: PubChem BioAssay (NCI)
